Source: publication PMC5554537 (Frontiers in Pharmacology, 2017)
Like-named read-outs stand apart in the source and are kept apart here.

What was measured:
[1] = Metabolite profile in plasma, liver and HT29 tumor after i.p. SN30000; assay type: in vivo, NIH-III mice; conditions: SN30000 186 mg/kg i.p.; for Metabolite/SN30000 peak area, Tumor: HT29 tumor
Description: Mouse plasma and tissue homogenates, prepared from tissue samples in two volumes of ice-cold PBS using a TissueLyser II (Qiagen Sciences, Germantown, MD, United States) with 30 Hz oscillation frequency for 1 min, were processed by precipitating proteins with 3 vol MeOH and centrifuging (13,000 g, 4°C for 10 min). Supernatants were diluted into 3 vol water and analyzed with an Agilent model 6460 LC-MS/MS with an in-line photodiode array absorbance detector. Chromatographic separation was performed on a Zorbax Eclipse C18 column (100 mm × 3.0 mm, 1.8 μm; Agilent Technologies) at 35°C with a flow rate of 0.6 mL/min, with positive or negative mode electrospray ionization. The mobile phase was a gradient constructed using 80% MeCN/20% water/0.1% formic acid v/v/v (A) and 0.1% formic acid in water (B) from 10% A to 80% A with a total run time of […]. The gradient profile was: 0–4 min, 10% A; 4–11 min linear increase to 60% A; 11–12 min to 80% A; held for 1 min, returned to 10% A over 0.5 min and held for 2 min before the next sample injection. Absorbance spectra were collected from 230 to 600 nm with a reference wavelength of 550 nm. The mass/charge (m/z) ratio was scanned from 100 to 800 with a fragmentor voltage of 120 V. MS^2 with various collision energies was used for further characterization of some metabolites.
Metabolites were investigated in plasma, liver and HT29 tumors following i.p. dosing of female NIH-III mice with SN30000 at 186 mg/kg, which represents its previously determined MTD for this route and mouse strain ([Gu et al., 2014]). Representative chromatograms are shown in Supplementary Figure 1. A total of 19 metabolites (M1–M19) were provisionally identified (Figure 1 and Table 1). Assignments were confirmed by comparison with synthetic standards in the case of the 1-oxide M14 and nor-oxide M13, which have previously been reported as murine metabolites of SN30000 ([Wang et al., 2012]) and for M15 which is known to be the major photodegradation product of SN30000 ([Gu et al., 2014]). In addition, the previously unreported metabolite M18, which is the main plasma metabolite at late times, was isolated from pooled plasma of mice dosed with M14 in sufficient quantity for characterization by NMR (Supplementary Data). This identified M18 as an oxidation product of M14 with an alkanoic acid side-chain (Figure 1), an assignment that was confirmed by synthesis of the authentic compound which was identical by HPLC retention time, absorbance spectrum, elemental analysis, mass spectrum and NMR spectroscopy.

[2] = Plasma, liver and brain PK after i.p. dosing with M14; assay type: in vivo; conditions: i.p. M14 135 mg/kg; for half-life: read-out: Terminal T1/2
Description: Concentration-time data were analyzed by non-compartmental analysis using Phoenix WinNonlin (ver 6.4, Build 6.4.0768 Pharsight, United States); all AUC values were extrapolated to infinity using the linear trapezoidal rule. A compartmental model for plasma PK after dosing with SN30000 or M14 was fitted using Phoenix NLME v1.3 with random effects on the metabolite volumes of distribution, and temperature effects based on the observed body temperature at the last measurement time. Temperature effects were added or removed until there was no significant change in the log likelihood. Model fits were further assessed by visual inspection of the residuals and predicted PK.

[3] = Plasma protein binding by equilibrium dialysis; assay type: in vitro ADME; conditions: NIH-III mouse plasma, 37°C, 6 h
Description: TABLE 11: Protein binding of SN30000, M14 and M18 at the indicated concentrations in NIH-III mouse plasma, measured by equilibrium dialysisa.
(µM) Percent Protein Bound (Mean ± SD)b […]
a Protein binding was evaluated by equilibrium dialysis using a high throughput plate with 12-14KDa dialysis membrane (HTDialysis, Gales Ferry, CT) as described by Banker et al., 2003, with modification. Briefly, 100 µL samples of plasma containing SN30000 or metabolites (M14 and M18) were dialysed against 100 µL PBS (pH 7.4) in an incubator (Innova-42, New Brunswick Scientific, US ) at 37°C with shaking at 80 rpm for 6 h. To achieve matrix match, 10 µL of blank plasma was added to 90 µL of the PBS sample and 90 µL of PBS was added to 10 µL of the plasma sample. Proteins were precipitated with 3 vol of ice-cold MeCN, the centrifuged supernatants were mixed with 2 vol 45 mM ammonium formate buffer pH 4.5, and 50 µL samples were analysed by HPLC with absorbance […]
bValues are mean and SD for triplicate samples.

[4] = NIH-III nude, mouse, in vivo, ip, 135 mg/kg, liver
[5] = NIH-III nude, mouse, in vivo, ip, 135 mg/kg, plasma, read-out: Cmax
[6] = NIH-III nude, mouse, in vivo, ip, 135 mg/kg, plasma

Compound	Metabolite/SN30000 peak area, Tumor [1]	Metabolite/SN30000 peak area, Liver [1]	Metabolite/SN30000 peak area, Plasma [1]	AUC ([2]; brain) [µmol·h/kg]	AUC ([2]; liver) [µmol·h/kg]	Cmax ([2]; liver) [µmol/kg]	AUC ([2]; plasma) [µmol·h/kg]	Percent Protein Bound (Mean ± SD) ([3]; 100 µM) [%]	half-life [2, 4] [min]	Cmax [2, 5] [µM]	half-life [2, 6] [min]	Percent Protein Bound (Mean ± SD) ([3]; 10 µM) [%]	other results
c1c2c(cc3nc(CCCN4CCOCC4)nnc13)CCC2 [M13]	0.11	1.50	0.08	5.3	14.9	34.1 ± 5.4	1.79	–	–	–	–	–	half-life ([2]; NIH-III nude, mouse, ip, brain): 26 min; half-life ([2]; NIH-III nude, mouse, ip, liver): 32.7 min; Cmax ([2]; NIH-III nude, mouse, ip, plasma, read-out: Cmax): 4 ± 0.63 µM; half-life ([2]; NIH-III nude, mouse, ip, plasma): 40 min; Cmax ([2]; brain): 11.0 ± 1.6 µmol/kg
[O-][n+]1nc(CCCN2CCOCC2)nc2cc3c(cc21)CCC3 [M14]	0.41	5.18	0.35	108.3	131.1	–	36.6	65.81 ± 0.02	25.1	95.6 ± 9.8	30.8	–	Cmax ([2]; NIH-III nude, mouse, in vivo, ip, 135 mg/kg, brain, read-out: Cmax): 260 ± 29 µM; half-life ([2]; NIH-III nude, mouse, in vivo, ip, 135 mg/kg, brain): 20.1 min; Cmax ([2]; NIH-III nude, mouse, in vivo, ip, 135 mg/kg, liver, read-out: Cmax): 319 ± 46.1 µM
O=C(O)CCc1nc2cc3c(cc2[n+]([O-])n1)CCC3 [M18]	1.63	0.60	1.14	–	93.3	40.0 ± 3.0	349	90.32 ± 0.01	144	144 ± 5.3	182	91.77 ± 0.01	Detection in brain [2]: undetectable in brain
[O-][n+]1nc(CCCN2CCOCC2)[n+]([O-])c2cc3c(cc21)CCC3 [SN30000, 3-(3-Morpholinopropyl)-7,8-dihydro-6H-indeno[5,6-e][1,2,4]triazine 1,4-dioxide]	1.00	1.00	1.00	–	–	–	–	26.68 ± 0.04	–	–	–	21.93 ± 0.17	–
